Data reported in PubChem BioAssay (NCI).
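Tested at 5 concentrations; 48 h exposure; 96-well plates; endpoints linearly interpolated, else capped at highest concentration. Abbreviation: GI50, concentration required for 50% inhibition of growth. At the TGI there is no net growth.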

Columns and labels:
Assay in all cases: NCI-60 cell line screen, 48 h
UACC-257 melanoma = test system: UACC-257 melanoma
M14 melanoma = test system: M14 melanoma
OVCAR-5 ovarian = test system: OVCAR-5 ovarian
EKVX NSCLC = test system: EKVX NSCLC
COLO 205 colon = test system: COLO 205 colon
NCI-H23 lung = test system: NCI-H23 lung
OVCAR-8 ovarian = test system: OVCAR-8 ovarian
HL-60(TB) leukemia = test system: HL-60(TB) leukemia
NCI/ADR-RES ovarian = test system: NCI/ADR-RES ovarian
SK-MEL-28 melanoma = test system: SK-MEL-28 melanoma
HOP-92 NSCLC = test system: HOP-92 NSCLC
NCI-H460 lung = test system: NCI-H460 lung
ACHN renal = test system: ACHN renal
SNB-75 CNS = test system: SNB-75 CNS
SN12C renal = test system: SN12C renal
IGROV1 ovarian = test system: IGROV1 ovarian
MALME-3M melanoma = test system: MALME-3M melanoma
TK-10 renal = test system: TK-10 renal
NCI-H226 lung = test system: NCI-H226 lung
MDA-MB-468 breast = test system: MDA-MB-468 breast
OVCAR-4 ovarian = test system: OVCAR-4 ovarian
U251 CNS = test system: U251 CNS
A549 NSCLC = test system: A549 NSCLC
OVCAR-3 ovarian = test system: OVCAR-3 ovarian
A498 renal = test system: A498 renal
786-0 renal = test system: 786-0 renal
PC-3 prostate = test system: PC-3 prostate
CCRF-CEM leukemia = test system: CCRF-CEM leukemia
SK-MEL-5 melanoma = test system: SK-MEL-5 melanoma
UACC-62 melanoma = test system: UACC-62 melanoma
CAKI-1 renal = test system: CAKI-1 renal
MCF7 breast = test system: MCF7 breast
HCC-2998 colon = test system: HCC-2998 colon
K-562 leukemia = test system: K-562 leukemia
KM12 colon = test system: KM12 colon
HS 578T breast = test system: HS 578T breast
HCT-116 colon = test system: HCT-116 colon
SK-MEL-2 melanoma = test system: SK-MEL-2 melanoma
MDA-MB-231 breast = test system: MDA-MB-231 breast
HOP-62 NSCLC = test system: HOP-62 NSCLC
HT29 colon = test system: HT29 colon
UO-31 renal = test system: UO-31 renal
SF-295 CNS = test system: SF-295 CNS
RXF 393 renal = test system: RXF 393 renal
SNB-19 CNS = test system: SNB-19 CNS
SF-539 CNS = test system: SF-539 CNS
LOX IMVI melanoma = test system: LOX IMVI melanoma
SF-268 CNS = test system: SF-268 CNS
RPMI-8226 leukemia = test system: RPMI-8226 leukemia
DU-145 prostate = test system: DU-145 prostate
SW-620 colon = test system: SW-620 colon
MDA-MB-435 = test system: MDA-MB-435
HCT-15 colon = test system: HCT-15 colon
NCI-H522 lung = test system: NCI-H522 lung
SK-OV-3 ovarian = test system: SK-OV-3 ovarian
SR leukemia = test system: SR leukemia
BT-549 breast = test system: BT-549 breast
MOLT-4 leukemia = test system: MOLT-4 leukemia

O=C(CNc1nc(-c2ccccc2)cs1)Nc1ccc(Br)cc1 was tested, and the GI50 (UACC-257 melanoma) was 1410 nM, the TGI (UACC-257 melanoma) was 3140 nM and the GI50 (M14 melanoma) was 875 nM. The TGI (M14 melanoma) was 2490 nM, the GI50 (OVCAR-5 ovarian) was 1610 nM and the TGI (OVCAR-5 ovarian) was 3020 nM. The GI50 (EKVX NSCLC) was 1420 nM, the TGI (EKVX NSCLC) was 3030 nM and the GI50 (COLO 205 colon) was 1300 nM. The TGI (COLO 205 colon) was 2840 nM, the GI50 (NCI-H23 lung) was 646 nM and the TGI (NCI-H23 lung) was 1890 nM. The GI50 (OVCAR-8 ovarian) was 1660 nM, the TGI (OVCAR-8 ovarian) was 6070 nM and the GI50 (HL-60(TB) leukemia) was 1320 nM. The TGI (HL-60(TB) leukemia) was 49200 nM, the GI50 (NCI/ADR-RES ovarian) was 557 nM and the TGI (NCI/ADR-RES ovarian) was 3680 nM. The GI50 (SK-MEL-28 melanoma) was 1580 nM, the TGI (SK-MEL-28 melanoma) was 2970 nM and the GI50 (HOP-92 NSCLC) was 1400 nM. It also gave a TGI (HOP-92 NSCLC) of 3100 nM, a GI50 (NCI-H460 lung) of 1430 nM and a TGI (NCI-H460 lung) of 3420 nM. The GI50 (ACHN renal) was 844 nM, the TGI (ACHN renal) was 2160 nM and the GI50 (SNB-75 CNS) was 1130 nM. It also gave a TGI (SNB-75 CNS) of 5940 nM, a GI50 (SN12C renal) of 649 nM and a TGI (SN12C renal) of 1990 nM. It also gave a GI50 (IGROV1 ovarian) of 876 nM, a TGI (IGROV1 ovarian) of 2430 nM and a GI50 (MALME-3M melanoma) of 739 nM. It also gave a TGI (MALME-3M melanoma) of 2090 nM, a GI50 (TK-10 renal) of 1840 nM and a TGI (TK-10 renal) of 3270 nM. For the same compound, the GI50 (NCI-H226 lung) was 1120 nM, the TGI (NCI-H226 lung) was 3510 nM and the GI50 (MDA-MB-468 breast) was 532 nM. For the same compound, the TGI (MDA-MB-468 breast) was 1180 nM, the GI50 (OVCAR-4 ovarian) was 1330 nM and the TGI (OVCAR-4 ovarian) was 2980 nM. It also gave a GI50 (U251 CNS) of 525 nM, a TGI (U251 CNS) of 1340 nM and a GI50 (A549 NSCLC) of 1660 nM. It also gave a TGI (A549 NSCLC) of 3560 nM, a GI50 (OVCAR-3 ovarian) of 747 nM and a TGI (OVCAR-3 ovarian) of 1930 nM. For the same compound, the GI50 (A498 renal) was 3650 nM, the TGI (A498 renal) was 7990 nM and the GI50 (786-0 renal) was 798 nM. It also gave a TGI (786-0 renal) of 2100 nM, a GI50 (PC-3 prostate) of 1240 nM and a TGI (PC-3 prostate) of 3620 nM. The GI50 (CCRF-CEM leukemia) was 245 nM, the TGI (CCRF-CEM leukemia) was greater than 100000 nM and the GI50 (SK-MEL-5 melanoma) was 707 nM. The TGI (SK-MEL-5 melanoma) was 1870 nM, the GI50 (UACC-62 melanoma) was 903 nM and the TGI (UACC-62 melanoma) was 2320 nM. The GI50 (CAKI-1 renal) was 917 nM, the TGI (CAKI-1 renal) was 2300 nM and the GI50 (MCF7 breast) was 625 nM. The TGI (MCF7 breast) was 1940 nM, the GI50 (HCC-2998 colon) was 1450 nM and the TGI (HCC-2998 colon) was 2770 nM. The GI50 (K-562 leukemia) was 309 nM, the TGI (K-562 leukemia) was greater than 100000 nM and the GI50 (KM12 colon) was 1790 nM. The TGI (KM12 colon) was 5350 nM, the GI50 (HS 578T breast) was 2140 nM and the TGI (HS 578T breast) was 22300 nM. For the same compound, the GI50 (HCT-116 colon) was 507 nM, the TGI (HCT-116 colon) was 1660 nM and the GI50 (SK-MEL-2 melanoma) was 1320 nM. It also gave a TGI (SK-MEL-2 melanoma) of 2700 nM, a GI50 (MDA-MB-231 breast) of 655 nM and a TGI (MDA-MB-231 breast) of 1970 nM. The GI50 (HOP-62 NSCLC) was 1600 nM, the TGI (HOP-62 NSCLC) was 3170 nM and the GI50 (HT29 colon) was 752 nM. It also gave a TGI (HT29 colon) of 2160 nM, a GI50 (UO-31 renal) of 1050 nM and a TGI (UO-31 renal) of 2330 nM. For the same compound, the GI50 (SF-295 CNS) was 1480 nM, the TGI (SF-295 CNS) was 4100 nM and the GI50 (RXF 393 renal) was 1150 nM. It also gave a TGI (RXF 393 renal) of 2540 nM, a GI50 (SNB-19 CNS) of 1480 nM and a TGI (SNB-19 CNS) of 3080 nM. The GI50 (SF-539 CNS) was 779 nM, the TGI (SF-539 CNS) was 2020 nM and the GI50 (LOX IMVI melanoma) was 296 nM. The TGI (LOX IMVI melanoma) was 1290 nM, the GI50 (SF-268 CNS) was 1720 nM and the TGI (SF-268 CNS) was 7070 nM. For the same compound, the GI50 (RPMI-8226 leukemia) was 396 nM, the TGI (RPMI-8226 leukemia) was 1890 nM and the GI50 (DU-145 prostate) was 1600 nM. For the same compound, the TGI (DU-145 prostate) was 3050 nM, the GI50 (SW-620 colon) was 759 nM and the TGI (SW-620 colon) was 2300 nM. The GI50 (MDA-MB-435) was 1020 nM, the TGI (MDA-MB-435) was 2790 nM and the GI50 (HCT-15 colon) was 469 nM. The TGI (HCT-15 colon) was 1160 nM, the GI50 (NCI-H522 lung) was 168 nM and the TGI (NCI-H522 lung) was 339 nM. For the same compound, the GI50 (SK-OV-3 ovarian) was 1940 nM, the TGI (SK-OV-3 ovarian) was 4750 nM and the GI50 (SR leukemia) was 470 nM. The TGI (SR leukemia) was greater than 100000 nM, the GI50 (BT-549 breast) was 498 nM and the TGI (BT-549 breast) was 1680 nM. It also gave a GI50 (MOLT-4 leukemia) of 424 nM.
